The values below come from US20240124417A1, “COMPOUNDS USEFUL AS IMMUNOMODULATORS” (Bristol-Myers Squibb Company, priority 2019, published 2024).

Structures are written as SMILES.

T1 sequence (Q9NZQ7 18-239): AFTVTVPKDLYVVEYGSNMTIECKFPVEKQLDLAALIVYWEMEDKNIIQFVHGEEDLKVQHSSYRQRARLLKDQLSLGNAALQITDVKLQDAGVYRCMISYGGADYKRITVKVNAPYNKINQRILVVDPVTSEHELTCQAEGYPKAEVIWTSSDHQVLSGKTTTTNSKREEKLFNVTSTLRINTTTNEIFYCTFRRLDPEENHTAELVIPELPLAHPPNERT

The assay addresses T1, PD-1/PD-L1 (Homo sapiens, UniProt Q9NZQ7).
T1 construct: TVMV protease site linker (C); made in house; host or cells: HEK293T cells
The experiment in a line: PD-1/PD-L1 Homogenous Time-Resolved Fluorescence (HTRF) binding assay. The note with it: PD-L1-His 10 nM, PD-1-Ig 20 nM. The procedure, abridged:
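Inhibitors pre-incubated 15 min with PD-L1-His extracellular domain (10 nM final) in dPBS with 0.1% BSA and 0.05% Tween-20, then PD-1-Ig (20 nM final) added for a further 15 min. Read-out by HTRF with europium cryptate anti-Ig (1 nM) and APC anti-His (20 nM). Related pairs: PD-1-Ig/PD-L2-His (20/5 nM), CD80-His/PD-L1-Ig (100/10 nM).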
Background: TR-FRET usually uses a lanthanide donor and a delayed reading to cut background.
In the case of `Cc1c(COc2cc(OCc3cncc(C#N)c3)c(CNCc3ncc(-c4ccccc4)o3)cc2Cl)cccc1-c1cccc(OCCCN2CC[C@@H](O)C2)c1C` [Example 2566, (R)-5-((4-chloro-5-((3′-(3-(3-hydroxypyrrolidin-1-yl)propoxy)-2,2′-dimethyl-[1,1′-biphenyl]-3-yl)methoxy)-2-((((5-phenyloxazol-2-yl)methyl)amino)methyl)phenoxy)methyl)nicotinonitrile], the IC50 was found to be 48.6 nM. Take `Cc1c(COc2cc(OCc3cncc(C#N)c3)c(CN3CCc4c(cnn4-c4ccccc4)C3)cc2Cl)cccc1-c1cccc(OCCCN2CC[C@@H](O)C2)c1C` [Example 2567, (R)-5-((4-chloro-5-((3′-(3-(3-hydroxypyrrolidin-1-yl)propoxy)-2,2′-dimethyl-[1,1′-biphenyl]-3-yl)methoxy)-2-((1-phenyl-1,4,6,7-tetrahydro-5H-pyrazolo[4,3-c]pyridin-5-yl)methyl)phenoxy)methyl)nicotinonitrile]: the IC50 stood at 22.8 nM. In the case of `Cc1c(COc2cc(OCc3cncc(C#N)c3)c(CN3CCCC(c4cc[nH]n4)C3)cc2Cl)cccc1-c1cccc(OCCCN2CC[C@@H](O)C2)c1C` (stereo partly drawn) [Example 2568, 5-((2-((3-(1H-pyrazol-3-yl)piperidin-1-yl)methyl)-4-chloro-5-((3′-(3-((R)-3-hydroxypyrrolidin-1-yl)propoxy)-2,2′-dimethyl-[1,1′-biphenyl]-3-yl)methoxy)phenoxy)methyl)nicotinonitrile] it was 2.5 nM; in that of `Cc1c(COc2cc(OCc3cncc(C#N)c3)c(CN3CCc4cn[nH]c4C3)cc2Cl)cccc1-c1cccc(OCCCN2CC[C@@H](O)C2)c1C` [Example 2569, (R)-5-((4-chloro-5-((3′-(3-(3-hydroxypyrrolidin-1-yl)propoxy)-2,2′-dimethyl-[1,1′-biphenyl]-3-yl)methoxy)-2-((1,4,5,7-tetrahydro-6H-pyrazolo[3,4-c]pyridin-6-yl)methyl)phenoxy)methyl)nicotinonitrile], 5.5 nM. As to `Cc1n[nH]c(C)c1CNCc1cc(Cl)c(OCc2cccc(-c3cccc(OCCCN4CC[C@@H](O)C4)c3C)c2C)cc1OCc1cncc(C#N)c1` [Example 2570, (R)-5-((4-chloro-2-((((3,5-dimethyl-1H-pyrazol-4-yl)methyl)amino)methyl)-5-((3′-(3-(3-hydroxypyrrolidin-1-yl)propoxy)-2,2′-dimethyl-[1,1′-biphenyl]-3-yl)methoxy)phenoxy)methyl)nicotinonitrile], the 50% inhibitory concentration (IC50) was determined as 1.5 nM.

The compound `CCc1nc(CN(CCOC)Cc2cc(Cl)c(OCc3cccc(-c4cccc(OCCCN5CC[C@@H](O)C5)c4C)c3C)cc2OCc2cncc(C#N)c2)[nH]c1CC` [Example 2571, (R)-5-((4-chloro-2-((((4,5-diethyl-1H-imidazol-2-yl)methyl)(2-methoxyethyl)amino)methyl)-5-((3′-(3-(3-hydroxypyrrolidin-1-yl)propoxy)-2,2′-dimethyl-[1,1′-biphenyl]-3-yl)methoxy)phenoxy)methyl)nicotinonitrile] showed an IC50 of 3.8 nM. In the case of `Cc1n[nH]c(C)c1CN(C)Cc1cc(Cl)c(OCc2cccc(-c3cccc(OCCCN4CC[C@@H](O)C4)c3C)c2C)cc1OCc1cncc(C#N)c1` [Example 2572, (R)-5-((4-chloro-2-((((3,5-dimethyl-1H-pyrazol-4-yl)methyl)(methyl)amino)methyl)-5-((3′-(3-(3-hydroxypyrrolidin-1-yl)propoxy)-2,2′-dimethyl-[1,1′-biphenyl]-3-yl)methoxy)phenoxy)methyl)nicotinonitrile] it was 3.3 nM.

`Cc1cc(CNCc2cc(Cl)c(OCc3cccc(-c4cccc(OCC5CCCN(C)C5)c4Cl)c3C)cc2OCc2cncc(C#N)c2)no1` (stereo not drawn) [Example 2575, 5-((4-chloro-5-((2′-chloro-2-methyl-3′-((1-methylpiperidin-3-yl)methoxy)-[1,1′-biphenyl]-3-yl)methoxy)-2-((((5-methylisoxazol-3-yl)methyl)amino)methyl)phenoxy)methyl)nicotinonitrile] yielded an IC50 of 2.8 nM.

As for `Cc1c(COc2cc(OCc3cncc(C#N)c3)c(CNCc3cncs3)cc2Cl)cccc1-c1cccc(OCC2CCCN(C)C2)c1Cl` (stereo not drawn) [Example 2576, 5-((4-chloro-5-((2′-chloro-2-methyl-3′-((1-methylpiperidin-3-yl)methoxy)-[1,1′-biphenyl]-3-yl)methoxy)-2-(((thiazol-5-ylmethyl)amino)methyl)phenoxy)methyl)nicotinonitrile], the half-inhibitory concentration (IC50) turned out to be 2.5 nM. In the case of `Cc1c(COc2cc(OCc3cncc(C#N)c3)c(CNCc3ncc[nH]3)cc2Cl)cccc1-c1cccc(OCC2CCCN(C)C2)c1Cl` (stereo not drawn) [Example 2577, 5-((2-((((1H-imidazol-2-yl)methyl)amino)methyl)-4-chloro-5-((2′-chloro-2-methyl-3′-((1-methylpiperidin-3-yl)methoxy)-[1,1′-biphenyl]-3-yl)methoxy)phenoxy)methyl)nicotinonitrile] it was 1.6 nM; in that of `Cc1c(COc2cc(OCc3cncc(C#N)c3)c(CNCc3ncn[nH]3)cc2Cl)cccc1-c1cccc(OCC2CCCN(C)C2)c1Cl` (stereo not drawn) [Example 2578, 5-((2-((((1H-1,2,4-triazol-5-yl)methyl)amino)methyl)-4-chloro-5-((2′-chloro-2-methyl-3′-((1-methylpiperidin-3-yl)methoxy)-[1,1′-biphenyl]-3-yl)methoxy)phenoxy)methyl)nicotinonitrile], 1.9 nM. The compound `Cc1c(COc2cc(OCc3cncc(C#N)c3)c(CNCCc3ncn[nH]3)cc2Cl)cccc1-c1cccc(OCC2CCCN(C)C2)c1Cl` (stereo not drawn) [Example 2579, 5-((2-(((2-(1H-1,2,4-triazol-5-yl)ethyl)amino)methyl)-4-chloro-5-((2′-chloro-2-methyl-3′-((1-methylpiperidin-3-yl)methoxy)-[1,1′-biphenyl]-3-yl)methoxy)phenoxy)methyl)nicotinonitrile] gave a half-inhibitory concentration (IC50) of 0.5 nM. Turning to `Cc1c(COc2cc(OCc3cncc(C#N)c3)c(CNCCc3c[nH]cn3)cc2Cl)cccc1-c1cccc(OCC2CCCN(C)C2)c1Cl` (stereo not drawn) [Example 2580, 5-((2-(((2-(1H-imidazol-4-yl)ethyl)amino)methyl)-4-chloro-5-((2′-chloro-2-methyl-3′-((1-methylpiperidin-3-yl)methoxy)-[1,1′-biphenyl]-3-yl)methoxy)phenoxy)methyl)nicotinonitrile], the IC50 was 0.2 nM. The value for `Cc1c(COc2cc(OCc3cncc(C#N)c3)c(CN(C)Cc3cn[nH]c3)cc2Cl)cccc1-c1cccc(OCC2CCCN(C)C2)c1Cl` (stereo not drawn) [Example 2581, 5-((2-((((1H-pyrazol-4-yl)methyl)(methyl)amino)methyl)-4-chloro-5-((2′-chloro-2-methyl-3′-((1-methylpiperidin-3-yl)methoxy)-[1,1′-biphenyl]-3-yl)methoxy)phenoxy)methyl)nicotinonitrile] was 3.4 nM; that for `Cc1c(COc2cc(OCc3cncc(C#N)c3)c(CNCCc3cc[nH]n3)cc2Cl)cccc1-c1cccc(OCC2CCCN(C)C2)c1Cl` (stereo not drawn) [Example 2582, 5-((2-(((2-(1H-pyrazol-3-yl)ethyl)amino)methyl)-4-chloro-5-((2′-chloro-2-methyl-3′-((1-methylpiperidin-3-yl)methoxy)-[1,1′-biphenyl]-3-yl)methoxy)phenoxy)methyl)nicotinonitrile] was 3.7 nM; that for `Cc1c(COc2cc(OCc3cncc(C#N)c3)c(CN3CCc4[nH]cnc4C3)cc2Cl)cccc1-c1cccc(OCC2CCCN(C)C2)c1Cl` (stereo not drawn) [Example 2583, 5-((4-chloro-5-((2′-chloro-2-methyl-3′-((1-methylpiperidin-3-yl)methoxy)-[1,1′-biphenyl]-3-yl)methoxy)-2-((1,4,6,7-tetrahydro-5H-imidazo[4,5-c]pyridin-5-yl)methyl)phenoxy)methyl)nicotinonitrile] was 2.3 nM.

The compound `Cc1c(COc2cc(OCc3cncc(C#N)c3)c(CNCc3cncnc3)cc2Cl)cccc1-c1cccc(OCC2CCCN(C)C2)c1Cl` (stereo not drawn) [Example 2584, 5-((4-chloro-5-((2′-chloro-2-methyl-3′-((1-methylpiperidin-3-yl)methoxy)-[1,1′-biphenyl]-3-yl)methoxy)-2-(((pyrimidin-5-ylmethyl)amino)methyl)phenoxy)methyl)nicotinonitrile] came in with an IC50 of 2.6 nM. Consider `Cc1c(COc2cc(OCc3cncc(C#N)c3)c(CNCc3nccs3)cc2Cl)cccc1-c1cccc(OCC2CCCN(C)C2)c1Cl` (stereo not drawn) [Example 2585, 5-((4-chloro-5-((2′-chloro-2-methyl-3′-((1-methylpiperidin-3-yl)methoxy)-[1,1′-biphenyl]-3-yl)methoxy)-2-(((thiazol-2-ylmethyl)amino)methyl)phenoxy)methyl)nicotinonitrile], for which the half-maximal inhibitory concentration (IC50) was 2.8 nM. For `Cc1c(COc2cc(OCc3cncc(C#N)c3)c(CNCc3csc(N)n3)cc2Cl)cccc1-c1cccc(OCC2CCCN(C)C2)c1Cl` (stereo not drawn) [Example 2586, 5-((2-((((2-aminothiazol-4-yl)methyl)amino)methyl)-4-chloro-5-((2′-chloro-2-methyl-3′-((1-methylpiperidin-3-yl)methoxy)-[1,1′-biphenyl]-3-yl)methoxy)phenoxy)methyl)nicotinonitrile], the IC50 turned out to be 0.7 nM. `Cc1c(COc2cc(OCc3cncc(C#N)c3)c(CN3CCc4[nH]ncc4C3)cc2Cl)cccc1-c1cccc(OCC2CCCN(C)C2)c1Cl` (stereo not drawn) [Example 2587, 5-((4-chloro-5-((2′-chloro-2-methyl-3′-((1-methylpiperidin-3-yl)methoxy)-[1,1′-biphenyl]-3-yl)methoxy)-2-((1,4,6,7-tetrahydro-5H-pyrazolo[4,3-c]pyridin-5-yl)methyl)phenoxy)methyl)nicotinonitrile] showed an IC50 of 0.9 nM.

Regarding `Cc1c(COc2cc(OCc3cncc(C#N)c3)c(CNCc3cc[nH]n3)cc2Cl)cccc1-c1cccc(OCC2CCCN(C)C2)c1Cl` (stereo not drawn) [Example 2588, 5-((2-((((1H-pyrazol-3-yl)methyl)amino)methyl)-4-chloro-5-((2′-chloro-2-methyl-3′-((1-methylpiperidin-3-yl)methoxy)-[1,1′-biphenyl]-3-yl)methoxy)phenoxy)methyl)nicotinonitrile], the IC50 worked out at 2 nM.

For orientation: IC50 means the midpoint of a concentration-inhibition curve. Lower therefore signals greater potency.
